Here are results for eleven compounds from US6670383B2, “Pyranocoumarin compounds as a novel pharmacophore with anti-TB activity” (priority 2001, dated 2003).

In brackets after ≈: the same amount, converted by molar mass. Several values for one entry are separate records, joined by “and”; a condition that tells them apart may be missing. Identical values can stand only once. Counter-ions that a name gives are not always drawn. Like-named read-outs stand apart in the source and are kept apart here. Bounds are passed on as bounds.

Test [1] has as its system H37Rv strain of M. tuberculosis. As to the kind of experiment: BACTEC 460 radiometric system in BACTEC 12B medium: inhibition and MIC. The settings on record: for % Inhibition: 12.5 μg/mL; for MIC: lowest concentration inhibiting 99% of the inoculum. The test is classed as cell-based.
The nature of test [2]: IC50 of Table 2 (used for SI = IC50/MIC; test not described).
For test [3], the system named is M. tuberculosis H37Ra. As to the kind of experiment: colorimetric microdilution broth assay with alamar Blue, initial screen at four log10 dilutions. The settings on record: Mycobacterium tuberculosis, H37RA, initial screening at 0.128, 1.28, 12.8 and 128 μg/mL, read-out: MIC. In kind it is cell-based. Here is the method:
The compounds synthesized above were evaluated for activity against M. tuberculosis H37Ra using a colorimetric microdilution broth assay that incorporated the REDOX indicator alamar Blue, which indicates the growth and viability by the metabolic reduction of the dye from blue to red^18.
In an initial screen, the compounds were assayed in duplicate at four log10 dilutions, with the highest concentration being 128 μg/mL (therefore, tested concentrations were 0.128, 1.28, 12.8, and 128 μg/mL). Each solubilized test compound was diluted in broth medium (Middlebrook 7H9+ADC enrichment+0.2% glycerol) at twice the desired concentration and 0.05 mL of each dilution then added to appropriate wells in duplicate in a 96 well (U-shaped) microtiter plates. A plate format was designed for up to seven (7) compounds per plate. Each plate also included uninoculated drug controls, viability controls, uninoculated medium controls, and positive drug controls. The inoculum for each well consisted of 0.05 mL of culture, standardized as described above to provide an inoculum in each microtiter well of approximately 10^5 CFU/mL. The plates were covered with a lid, placed in polyethylene bags and incubated for at 37° C. for 6 days. At that time, alamar Blue, diluted in Tween 80, was added to each well followed by further incubation for about 20 hours. The plates were read in an optical microplate reader programmed to subtract absorbance at 600 nm from absorbance at 570 nm. This effectively blanked out turbidity and absorbance due to oxidized dye. The amount of dye reduced, resulting in a change from blue to red, is indicative of drug yielding a differential absorption of zero or less.

Test [4] concerns M. tuberculosis H37Ra. Briefly: MIC and MBC determination using 2-fold dilutions. The test is classed as cell-based. Particulars: for MIC / MBC: Mycobacterium tuberculosis.
Test [5] relates to M. tuberculosis strain H37Ra. Briefly: MIC against strains of Table 1. In kind it is cell-based.
For test [6], the system named is M. tuberculosis strain H37Rv. As to the kind of experiment: MIC against strains of Table 1. The test is classed as cell-based.
Test [7] concerns M. tuberculosis. Particulars: first line anti-TB drugs, for comparison; cited from earlier work.
The subject of test [8] is M. tuberculosis strain Erdman (TMCC 107/ATCC 35801). As to the kind of experiment: bone marrow-derived murine macrophage model, BC99. In kind it is cell-based.
Test [9] deals with TB. Particulars: in vivo; cited from earlier work.
The subject of test [10] is M. tuberculosis' synthesis of protein, RNA, DNA and lipid. As to the kind of experiment: incorporation of radiolabeled precursors into mycobacterial macromolecular components. In kind it is cell-based.
Test [11] concerns M. tuberculosis strain CSU 93 (CDC-95-031551). As to the kind of experiment: bone marrow-derived murine macrophage model, BC99. In kind it is cell-based. The settings on record: concentration at which 99% of the inoculum is destroyed. On the procedure:
(§1) For comparison, MICs for the first line anti-TB drugs are 0.025-0.05 μg/mL for isoniazid, 0.005-0.2 μg/mL for rifampin, and 0.4-10 μg/mL for ethambutol. However, in a bone marrow-derived murine macrophage model, the BC 99 value of (+)-calanolide A, a concentration at which 99% of the inoculum of M. tuberculosis is destroyed, was 1.1 μg/mL (3 μM) against strain Erdman (TMCC 107/ATCC 35801) and 1.8 μg/mL (5 μM) against strain CSU 93 (CDC-95-031551), compared to 0.7-0.8 μg/mL (5-6 μM) for the positive control drug isoniazide.

The test system of test [12] is M. avium. As to the kind of experiment: inhibition of M. avium. Particulars: 12.5 μg/mL. The test is classed as cell-based. On the procedure:
as §1

The mark [13] stands for this setting: 2-fold dilutions, lowest concentration that completely inhibits growth, H37Ra, read-out: MIC.
Where [14] appears, read: minimum bactericidal concentration, H37Ra, read-out: MBC.
[15] abbreviates: Mycobacterium tuberculosis, read-out: MIC.

The % Inhibition is the drop in the measured response relative to a control, in per cent. Read a high % Inhibition as a strong effect. As a reminder, the MIC is the smallest concentration in the dilution series that meets the test's criterion for growth inhibition. As a reminder, the IC50 is the concentration at which inhibition is half-maximal. The low end stands for greater potency in that assay, the high end for weaker potency in that assay. What is called MBC is the smallest concentration meeting the test's criterion for killing.

As for `CCCc1cc(=O)oc2c3c(c4c(c12)OC(C)(C)C=C4)O[C@@H](C)[C@H](C)[C@H]3O` [(−)-Calanolide A (2), (−)-Calanolide A], in test [1], the “% Inhibition” value was 98% and the MIC amounted to 6.25 µg/mL (≈ 16.9 µM). Besides, in test [2], the 50% inhibitory concentration (IC50) was greater than 10 µg/mL.
`CCCc1cc(=O)oc2c3c(c4c(c12)OC(C)(C)C=C4)O[C@H](C)[C@@H](C)C3N` (stereo partly shown) [Compound 22]: the MIC in test [3] was 1.28 to 12.8 µg/mL (≈ 3.46 to 34.6 µM); in test [4] (setting [13]), 16 µg/mL (≈ 43.3 µM). The “effect on M. tuberculosis” value in test [4] is listed as “bactericidal”. Moreover, the MBC in test [4] (setting [14]) came out at 32 µg/mL (≈ 86.6 µM).
For `CCCc1cc(=O)oc2c(C(N)CC)c(OC(C)C)cc(OC(C)C)c12` (stereo not shown) [Compound 26c, 8-(1-Aminopropyl)-5,7-diisopropoxy-4-propyl-chromen-2-one, hydrochloride] the same measures were 1.28 to 12.8 µg/mL, 16 µg/mL, “bactericidal” and 64 µg/mL.
Regarding `CCCc1cc(=O)oc2c(C(=O)CC)c(OC)c3c(c12)OC(C)(C)CC3` [Compound 44b, 5-Methoxy-2,2-dimethyl-6-propionyl-10-propyl-3,4-dihydro-2H-pyrano[2,3-f]chromen-8-one], the MIC in test [3] was 1.28 to 12.8 µg/mL (≈ 3.57 to 35.7 µM); in [4] (setting [13]), 16 µg/mL (≈ 44.6 µM). Also, in [4] (setting [14]), the MBC was greater than 64 µg/mL.
For `CCCc1cc(=O)oc2c(C(N)CC)c(OCCO)c3c(c12)OC(C)(C)C=C3` (stereo not shown) [Compound 45e, 6-(1-Aminopropyl)-5-(2-hydroxyethoxy)-2,2-dimethyl-10-propyl-2H-pyrano[2,3-f]chromen-8-one], in test [3], the MIC was 1.28 to 12.8 µg/mL (≈ 3.3 to 33 µM). Also, the “effect on M. tuberculosis” value in [4] was “bactericidal”. Moreover, in test [4] (H37RA), the MBC turned out to be 32 µg/mL (≈ 82.6 µM) and the MIC amounted to 16 µg/mL (≈ 41.3 µM).
Regarding `CC[C@@H](CO)NCCN[C@@H](CC)CO` [Ethambutol], the MIC in test [5] (setting [15]) was 4 µg/mL (≈ 19.6 µM); in test [6] (setting [15]), 2 µg/mL (≈ 9.79 µM); in test [7], 0.4 to 10 µg/mL.
Consider `NNC(=O)c1ccncc1` [Isoniazid], for which, in test [8] (positive control, one range printed for strains Erdman and CSU 93, listed as isoniazide), the “BC 99” value is 0.7-0.8 μg/mL and 5-6 μM. The results for the MIC in [5] (setting [15]), in test [6] (setting [15]) and in [7] were 0.063 µg/mL (≈ 0.459 µM), 0.031 µg/mL (≈ 0.226 µM) and 0.025 to 0.05 µg/mL, respectively.
On to `CO[C@H]1/C=C/O[C@@]2(C)Oc3c(C)c(O)c4c(O)c(c(/C=N/N5CCN(C)CC5)c(O)c4c3C2=O)NC(=O)/C(C)=C\C=C\[C@H](C)[C@H](O)[C@@H](C)[C@@H](O)[C@@H](C)[C@H](OC(C)=O)[C@@H]1C` [Rifampin], for which the MIC in test [6] (setting [15]) is 0.016 µg/mL (≈ 0.0194 µM); in test [7], 0.005 to 0.2 µg/mL. Further, the TB relapse rate in test [9] was 5%.
Consider `[H]/N=C(/N)N[C@H]1[C@H](O)[C@@H](O)[C@H](O[C@@H]2O[C@@H](C)[C@](O)(C=O)[C@H]2O[C@@H]2O[C@@H](CO)[C@H](O)[C@@H](O)[C@@H]2NC)[C@@H](N/C(N)=N\[H])[C@@H]1O` [Streptomycin], for which the MIC in test [6] (setting [15]) is 0.25 µg/mL (≈ 0.43 µM). Further, the “inhibition of protein synthesis” value in test [10] (positive control, at 5 hours) is on record as 43%.
For the compound `CO[C@H]1/C=C/O[C@@]2(C)Oc3c(C)c(O)c4c(O)c(c(/C=N/N5CCN(C6CCCC6)CC5)c(O)c4c3C2=O)NC(=O)/C(C)=C\C=C\[C@H](C)[C@H](O)[C@@H](C)[C@@H](O)[C@@H](C)[C@H](OC(C)=O)[C@@H]1C` [rifapentine], the TB relapse rate in [9] is 10%.
(+)-Calanolide A [(+)-Calanolide A (1)]: the “% Inhibition” value in test [1] is reported as 96%; in test [1] (listed as (+)-calanolide A), “greater than 96%”; in test [12], 81%. The MIC in [1] is 3.13 µg/mL; in [1] (listed as (+)-calanolide A), 3.13 μg/mL and 8 μM; in test [5] it was 16 µg/mL; in test [6], 8 µg/mL. Moreover, the “BC 99” value in [8] (concentration at which 99% of the inoculum is destroyed, strain Erdman) was 1.1 μg/mL and 3 μM; in [11], 1.8 μg/mL and 5 μM. The “kind of agent from drug inhibition patterns” value in [8] (macrophage model) is “bactericidal agent”. The “inhibition of RNA synthesis, extent and time frame” value in test [10] is “very similar to the positive control rifampin”. Further, the “inhibition of protein synthesis” value in [10] was 32%. In addition, in test [10] ([…], 12-hour time point, DMSO alone 51%), the “inhibition of lipid synthesis” value is reported as 99%. The “inhibition of DNA synthesis” value in test [10] ([…], period of 3 hours, DMSO alone 24%) is “Approximately 77%”. In [2], this compound returned an IC50 of 7.60 µg/mL.
